From patent US11297861B2, “Sweet protein from truffle” (MycoTechnology, Inc., priority 2020, dated 2022)

System: sweet taste
Assay: CATA time intensity of the sweet sensation, trained panel
Type: in vivo, human
Conditions: 10% sucrose in water
Experimental: Evaluation of thaumatin, sucrose, and SEQ ID NO:21 was carried out using a CATA (click all that apply) time intensity of the sweet sensation of named analytes in water at 0.045 mg/ml for proteins and 10% sucrose. Methodology: Time Intensity Technique; Data collection software: EyeQuestion, responses recorded every 2.57 seconds; Scaling Method: a 15-point sweet scale, e.g. score 5=5% sucrose, score 10=10% sucrose; Evaluation Protocol: small volume sip, tilt and spit test. There were 3-6 panelists and 2 replicates. All samples were blinded and presented with randomized 3-digit codes. Training Strategies: An intense training on sweet scale over 6 weeks on 15-point sweet scale to confidently assign sweet values. Due to unique sweet behavioral patterns, it is necessary to train time intensity principles over 3 weeks. Samples were tasted with a stopwatch to note times and help reach a consensus. # of Panelists: 3-6, # of replications: 2. All samples were blinded and presented with randomized 3-digit codes. Statistical analysis: due to the small # of panelists, a statistical analysis cannot be performed.

## OC[C@H]1O[C@@](CO)(O[C@H]2O[C@H](CO)[C@@H](O)[C@H](O)[C@H]2O)[C@@H](O)[C@@H]1O [SUC, sucrose]
  time to threshold sweetness (Intensity <1): 162 s
